Source: PubChem BioAssay (NCI)
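Where inhibition never reached the appropriate level, the endpoint shown equals the highest concentration tested. Otherwise, values were interpolated linearly from a five-concentration, 48-hour dose response in 96-well plates. GI50 is the concentration that inhibits growth by half. TGI: total growth inhibition.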

How the values were obtained:
Assay in all cases: NCI tumour cell line growth inhibition, 48 h
IGROV1 ovarian = test system: IGROV1 ovarian
P388/ADR leukemia = test system: P388/ADR leukemia
NCI/ADR-RES ovarian = test system: NCI/ADR-RES ovarian
DMS 273 small cell lung = test system: DMS 273 small cell lung
P388 leukemia = test system: P388 leukemia
MCF7 breast = test system: MCF7 breast
SN12K1 renal = test system: SN12K1 renal
M19-MEL melanoma = test system: M19-MEL melanoma
RXF-631 renal = test system: RXF-631 renal
T-47D breast = test system: T-47D breast
DU-145 prostate = test system: DU-145 prostate
PC-3 prostate = test system: PC-3 prostate
HS 578T breast = test system: HS 578T breast
MDA-MB-231 breast = test system: MDA-MB-231 breast
MDA-N = test system: MDA-N
MDA-MB-435 = test system: MDA-MB-435

Row | SMILES | TGI (IGROV1 ovarian) | TGI (NCI/ADR-RES ovarian) | TGI (DMS 273 small cell lung) | TGI (MCF7 breast) | TGI (M19-MEL melanoma) | TGI (RXF-631 renal) | further results
1 | O=C(O)/C=C/c1cnc[nH]1 | > 500 µM | > 500 µM | > 500 µM | > 500 µM | > 500 µM |  | TGI (P388/ADR leukemia): > 500 µM; GI50 (P388 leukemia): > 500 µM; TGI (P388 leukemia): > 500 µM; TGI (SN12K1 renal): > 500 µM
2 | COc1cccc(C2C(C(=O)O)=C(CO)Oc3cc4c(cc32)OCO4)c1 (stereo unspecified) | > 100 µM |  |  |  | > 100 µM |  | 
3 | COc1ccc2c(c1)O[C@H]1c3ccc(O)cc3OC[C@@H]21 | 71.6 µM |  | > 100 µM |  | 46 µM | > 100 µM | 
4 | CCOc1ccc(N=Nc2ccc3oc(=O)c(/C(C)=N\NC(=O)CC(=O)Nc4ccc(Cl)cc4)cc3c2)cc1 | 45.4 µM |  | 37.3 µM |  | > 100 µM | 45.5 µM | 
5 | COC(=O)C1=COC2OC3/C(=C\c4ccc(O)c(OC)c4)C(=O)OC34C=CC1C24 (stereo unspecified) | 40.3 µM |  | 30 µM |  | 27.3 µM |  | 
6 | CCOC(=O)C1(C(=O)OCC)CSC1 |  | > 100 µM |  | > 100 µM |  |  | TGI (T-47D breast): > 100 µM; TGI (DU-145 prostate): > 100 µM; TGI (PC-3 prostate): > 100 µM; TGI (HS 578T breast): > 100 µM; TGI (MDA-MB-231 breast): > 100 µM; TGI (MDA-N): > 100 µM; TGI (MDA-MB-435): > 100 µM
